In ChEMBL document CHEMBL1149341, “Two novel immunosuppressive pregnane glycosides from the roots of Stephanotis mucronata” (Bioorg Med Chem Lett, 2006) one finds Activity data, which are given here for two compounds.

Assay [1] relates to Splenocyte. The assay can be described thus: Inhibition of concanavalin A-stimulated mouse splenocyte proliferation by MTT method. Type of assay: functional, cell-based.
Assay [2] has as its system Splenocyte. The assay can be described thus: Inhibition of LPS-stimulated mouse splenocyte proliferation by MTT method. Type of assay: functional, cell-based. A general note: Tetrazolium assays rely on reduction of a dye to a coloured formazan, in cell work by metabolically active cells.

On to `CO[C@H]1[C@@H](O)[C@H](O[C@H]2[C@@H](OC)C[C@H](O[C@H]3[C@@H](OC)C[C@H](O[C@H]4CC[C@@]5(C)C(=CC[C@]6(O)C5C[C@@H](OC(=O)c5cccnc5)[C@@]5(C)[C@]6(O)CC[C@@]5(O)[C@@H](C)OC(=O)/C=C/c5ccccc5)C4)O[C@@H]3C)O[C@@H]2C)O[C@H](C)[C@H]1O[C@@H]1O[C@H](CO)[C@@H](O)[C@H](O)[C@H]1O` (some centres undefined), for which the Activity entry in the assay on Splenocyte [1] and in the assay with Splenocyte [2] was “Dose-dependent effect” throughout.

As for `CNc1ccccc1C(=O)O[C@H](C)[C@]1(O)CC[C@@]2(O)[C@]1(C)[C@H](OC(C)=O)C[C@@H]1[C@@]3(C)CC[C@H](O[C@H]4C[C@H](OC)[C@H](OC5C[C@H](OC)[C@H](O[C@@H]6O[C@H](C)[C@@H](O[C@@H]7O[C@H](CO)[C@@H](O)[C@H](O)[C@H]7O)[C@@H](OC)[C@H]6O)[C@@H](C)O5)[C@@H](C)O4)C[C@@H]3CC[C@]12O` (some centres undefined), the Activity entry in the assay with Splenocyte [1] and in the assay on Splenocyte [2] was “Dose-dependent effect” each time.
